Measurements as given in the NIST ThermoML archive (doi:10.1021/je800848u).
Numbers after ± are expanded uncertainties.

Tests used:
[1] = Crystal; visual observation
[2] = Molar enthalpy of transition or fusion; conditions: Crystal; DSC

Normal melting temperature [1] [°C] | Molar enthalpy of transition or fusion [2] [kcal/mol] | SMILES
141.00 ± 0.4 | 6.58 ± 0.189 | O=C(O)c1ccccc1Cl [2-chlorobenzoic acid]
127.00 ± 0.4 | 5.53 ± 0.163 | NC(=O)c1ccccc1 [benzamide]
